Here are results for 22 molecules from patent US9850203B2, “Autotaxin inhibitor compounds” (PharmAkea, Inc., priority 2013, dated 2017).

The term IC50 denotes the concentration that inhibits the measured activity by half.

This test addresses human autotaxin (ATX) (Homo sapiens (Human), UniProt Q13822). The experiment in a line: Human Autotaxin Assay. The class given is biochemical. The note with it: concentrated conditioned media from Hep3B cells; LPC substrate, choline release. In short, it runs like this:
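Autotaxin source: Hep3B conditioned medium concentrated 20-fold, preincubated with compound 15 min at 37° C in lyso-PLD buffer (100 mM Tris pH 9, 500 mM NaCl, 5 mM MgCl2, 5 mM CaCl2, 0.05% Triton X-100, ±0.2% fatty-acid-free HSA). 100 uM LPC (14:0) then added, 1.5-3 hours at 37° C; choline release measured.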
In turn, `Cc1c(Sc2cccc(C(=O)O)c2)c2ccc(Cl)c(F)c2n1CC(=O)N1CCCC2(CNC(=O)O2)C1` (stereo not shown) [Compound 1-69, 3-((6-Chloro-7-fluoro-2-methyl-1-(2-oxo-2-(2-oxo-1-oxa-3,7-diazaspiro[4.5]decan-7-yl)ethyl)-1H-indol-3-yl)thio)benzoic acid] registered an IC50 of no more than 500 nM.

`Cc1c(Sc2cccc(C(=O)O)c2)c2ccc(Cl)c(F)c2n1CC(=O)N1CCC(C)(C)CC1` [Compound 1-44, 3-((6-Chloro-1-(2-(4,4-dimethylpiperidin-1-yl)-2-oxoethyl)-7-fluoro-2-methyl-1H-indol-3-yl)thio)benzoic acid] yielded a 50% inhibitory concentration (IC50) of no more than 500 nM.

For `CCCC1CCN(C(=O)Cn2c(C)c(Sc3cccc(C(=O)O)c3)c3ccc(Cl)c(F)c32)C1` (stereo not shown) [Compound 1-77, 3-((6-Chloro-7-fluoro-2-methyl-1-(2-oxo-2-(3-propylpyrrolidin-1-yl)ethyl)-1H-indol-3-yl)thio)benzoic acid], the IC50 was no more than 500 nM.

In the case of `Cc1c(Sc2cccc(C(=O)O)c2)c2ccc(Cl)c(F)c2n1CC(=O)N1CCCCC1` [Compound 1-10, 3-((6-Chloro-7-fluoro-2-methyl-1-(2-oxo-2-(piperidin-1-yl)ethyl)-1H-indol-3-yl)thio)benzoic acid], the IC50 was no more than 500 nM.

On to `Cc1c(Sc2cccc(C(=O)O)c2)c2ccc(Cl)c(F)c2n1CC(=O)N1CCC(Cc2ccncc2)CC1` [Compound 1-63, 3-((6-Chloro-7-fluoro-2-methyl-1-(2-oxo-2-(4-(pyridin-4-ylmethyl)piperidin-1-yl)ethyl)-1H-indol-3-yl)thio)benzoic acid], for which the IC50 is no more than 500 nM.

For `Cc1c(Sc2cccc(C(=O)O)c2)c2ccc(Cl)c(F)c2n1CC(=O)N1CCC(Cc2ccc(F)cc2)C1` (single isomer, unassigned; enantiomer b) [Compound 1-66, 3-((6-Chloro-7-fluoro-1-(2-(3-(4-fluorobenzyl)pyrrolidin-1-yl)-2-oxoethyl)-2-methyl-1H-indol-3-yl)thio)benzoic acid Enantiomer B], the IC50 is 500 to 3000 nM.

The molecule `Cc1c(Sc2cccc(C(=O)O)n2)c2ccc(Cl)c(F)c2n1CC(=O)N1CCc2ccccc21` [Compound 2-3] had an IC50 of no more than 500 nM.

`Cc1c(Sc2cccc(C(=O)O)c2F)c2ccc(Cl)c(F)c2n1CC(=O)N1CC2(CC2)c2ccccc21` [Compound 2-55, 3-((6-Chloro-7-fluoro-2-methyl-1-(2-oxo-2-(spiro[cyclopropane-1,3′-indolin]-1′-yl)ethyl)-1H-indol-3-yl)thio)-2-fluorobenzoic acid]: the IC50 is no more than 500 nM.

Regarding `Cc1c(Sc2cccc(C(=O)O)c2)c2ccc(Cl)c(F)c2n1CC(=O)N1CC(N2CCS(=O)(=O)CC2)C1` [Compound 1-48, 3-((6-Chloro-1-(2-(3-(1,1-dioxidothiomorpholino)azetidin-1-yl)-2-oxoethyl)-7-fluoro-2-methyl-1H-indol-3-yl)thio)benzoic acid], the IC50 is no more than 500 nM.

As for `Cc1ccc2c(c1)CCN2C(=O)Cn1c(C)c(Sc2cccc(C(=O)O)c2)c2ccc(Cl)c(F)c21` [Compound 1-92, 3-((6-Chloro-7-fluoro-2-methyl-1-(2-(5-methylindolin-1-yl)-2-oxoethyl)-1H-indol-3-yl)thio)benzoic acid], the IC50 is no more than 500 nM.

`Cc1c(Sc2cccc(C(=O)O)c2)c2ccc(Cl)c(F)c2n1CC(=O)N1CC(O)(C2CC2)C1` [Compound 1-82, 3-((6-Chloro-1-(2-(3-cyclopropyl-3-hydroxyazetidin-1-yl)-2-oxoethyl)-7-fluoro-2-methyl-1H-indol-3-yl)thio)benzoic acid] displayed an IC50 of no more than 500 nM.

`Cc1c(Sc2cccc(C(=O)O)c2)c2ccc(Cl)c(F)c2n1CC(=O)N1CCC(OCc2ccc(F)cc2)C1` (stereo not shown) [Compound 1-22, 3-((6-Chloro-7-fluoro-1-(2-(3-((4-fluorobenzyl)oxy)pyrrolidin-1-yl)-2-oxoethyl)-2-methyl-1H-indol-3-yl)thio)benzoic acid] gave an IC50 of no more than 500 nM.

As for `Cc1c(Sc2cccc(C(=O)O)c2F)c2ccc(Cl)c(F)c2n1CC(=O)N1CCc2ccncc21` [Compound 2-60, 3-((6-Chloro-1-(2-(2,3-dihydro-1H-pyrrolo[2,3-c]pyridin-1-yl)-2-oxoethyl)-7-fluoro-2-methyl-1H-indol-3-yl)thio)-2-fluorobenzoic acid], the IC50 was no more than 500 nM.

`O=C(O)c1cccc(Sc2c(Cl)n(CCN3CC4(CCC4)c4ccccc43)c3c(F)c(Cl)ccc23)c1F` [Compound 5-1, Sodium 3-((2,6-dichloro-7-fluoro-1-(2-(spiro[cyclobutane-1,3′-indolin]-1′-yl)ethyl)-1H-indol-3-yl)thio)-2-fluorobenzoate] yielded an IC50 of no more than 500 nM.

In the case of `Cc1c(Sc2cccc(C(=O)O)c2)c2ccc(Cl)c(F)c2n1CCC(=O)N1CCCC1` [Compound 1-25, 3-((6-Chloro-7-fluoro-2-methyl-1-(3-oxo-3-(pyrrolidin-1-yl)propyl)-1H-indol-3-yl)thio)benzoic acid], the IC50 was no more than 500 nM.

In turn, `Cc1c(Sc2cccc(C(=O)O)c2)c2ccc(Cl)c(F)c2n1CC(=O)N1CCCC1=O` [Compound 1-59, 3-((6-Chloro-7-fluoro-2-methyl-1-(2-oxo-2-(2-oxopyrrolidin-1-yl)ethyl)-1H-indol-3-yl)thio)benzoic acid] had an IC50 of 500 to 3000 nM.

In the case of `Cc1c(Sc2cccc(C(=O)O)c2)c2ccc(Cl)c(F)c2n1CC(=O)N1CC(O)(C(F)(F)F)C1` [Compound 1-84, 3-((6-Chloro-7-fluoro-1-(2-(3-hydroxy-3-(trifluoromethyl)azetidin-1-yl)-2-oxoethyl)-2-methyl-1H-indol-3-yl)thio)benzoic acid], the IC50 was no more than 500 nM.

In turn, `Cc1c(Sc2cccc(C(=O)O)c2F)c2ccc(Cl)c(F)c2n1CC(=O)N1CC[C@@H](CO)C1` [Compound 2-64, (R)-3-((6-Chloro-7-fluoro-1-(2-(3-(hydroxymethyl)pyrrolidin-1-yl)-2-oxoethyl)-2-methyl-1H-indol-3-yl)thio)-2-fluorobenzoic acid] came in with an IC50 of no more than 500 nM.

`Cc1c(Sc2cccc(C(=O)O)c2)c2ccc(Cl)c(F)c2n1CC(=O)N1CCC2(CCN(Cc3ccccc3)CC2)C1` [Compound 1-67, 3-((1-(2-(8-Benzyl-2,8-diazaspiro[4.5]decan-2-yl)-2-oxoethyl)-6-chloro-7-fluoro-2-methyl-1H-indol-3-yl)thio)benzoic acid] showed an IC50 of 500 to 3000 nM.

`Cc1c(Sc2cccc(C(=O)O)c2F)c2ccc(Cl)c(F)c2n1CC(=O)N1CCC(O)(c2ccccc2)C1` (stereo not shown) [Compound 2-68, 3-((6-Chloro-7-fluoro-1-(2-(3-hydroxy-3-phenylpyrrolidin-1-yl)-2-oxoethyl)-2-methyl-1H-indol-3-yl)thio)-2-fluorobenzoic acid] registered an IC50 of no more than 500 nM.

Take `O=C(O)c1cccc(Sc2c(C3CC3)n(CCN3CCc4ccccc43)c3c(F)c(Cl)ccc23)c1F` [Compound 5-4, Sodium 3-((6-chloro-2-cyclopropyl-7-fluoro-1-(2-(indolin-1-yl)ethyl)-1H-indol-3-yl)thio)-2-fluorobenzoate]: the IC50 was no more than 500 nM.

In the case of `COc1ccc2c(c1)CCN2C(=O)Cn1c(C)c(Sc2cccc(C(=O)O)c2)c2ccc(Cl)c(F)c21` [Compound 1-58, 3-((6-Chloro-1-(2-(5-methoxyindolin-1-yl)-2-oxoethyl)-7-fluoro-2-methyl-1H-indol-3-yl)thio)benzoic acid], the IC50 is no more than 500 nM.
